In assay [1] the test system is rat muscle cell line (L6 myocytes). The assay can be described thus: L6 myocyte screen (glucose utilization). In kind it is cell-based. The following applies: differentiated L6 myocytes, 20 hours treatment, DMEM with 15 mM glucose, concentration producing 50 % of maximum response versus control, read-out: EC50 in the L6 myocyte test. How it is done:
This is indicated in standard tests, e.g. in vitro by the L6 myocyte screen in a rat muscle cell line:
The L6 myocyte screen determines the direct effects of 1 to 300 µM concentrations of the agents on glucose utilization in the rat muscle cell line. Rat L6 myoblasts (American Type Culture Collection) are maintained in Dulbecco's modified Eagle's medium (DMEM, Gibco) containing 5 mM glucose and 10 % calf serum supplement. The L6 myoblasts are plated in 96-well microtiter plates at a density of 3000 cells/well. Differentiated myocytes are used in experiments on the 11th or 13th day after plating. All test agents are dissolved in 1 % dimethylsulfoxide (DMSO) in serum-free testing media. The DMSO has no effect on glucose utilization. Each experiment includes the following internal controls: water, glucose standard (300 mg/dl), media blank, media control, ciglitazone standard (30 µM) and an insulin dose-response curve (0.03 - 1 µM). All compounds are tested in quadruplicate in each experiment at concentrations of 1, 3, 10, 30,100 and 300 µM. The L6 cells are treated with test compound and DMEM containing 15 mM glucose for 20 hours. Glucose utilization is assessed by measurement of glucose remaining in the media using a glucose oxidase assay (Ciba-Corning #S1004B). The EC50 is the concentration of the test agent estimated to produce 50 % of the maximum response versus control.

Assay [2] relates to male ob/ob mice. The experiment in a line: ob/ob hypoglycemia test. It is filed as in vivo. The following applies: oral gavage once a day for three days, blood glucose lowering, calculated on day 3. The protocol:
The antidiabetic activity is indicated in vivo e.g. in the ob/ob hypoglycemia test in male ob/ob mice, given 1 to 200 mg/kg of drug. The mice, approximately 2 to 3 months of age, weighing about 30 g, are kept in a room at a controlled ambient temperature of 22° C and a 12/12 hour light/dark cycle for at least seven days before the screen and then during testing. In the ob/ob screen, Purina rodent chow and water are available ad libitum. For each screen, mice are matched and placed in treatment groups (six mice per group) on the basis of initial blood glucose levels the day prior to screening (day 0). Animals are dosed once a day for three days with either vehicle (carboxymethylcellulose 0.5 %, with Tween-80 0.2 %) or test compound in vehicle. The animals receive 0.1 ml/10 g body weight administered orally by gavage. On day 1, blood glucose levels are sampled from the tip of the tail at 2 and 4 hours post-dose. On day 3, blood glucose levels are sampled at 2, 4 and 8 hours post-dose. Blood glucose levels are measured by the glucose oxidase method (YSI Model 27, Yellow Springs, Ohio). […] A systematic, quantitative procedure for assessing the behavioral and physiological state of the mouse, in Psychopharmacologica 12 (1968) 222-257.
Efficacy for glucose lowering is determined by comparing glucose levels of control animals to those of treated animals. […]

SMILES strings stand for the structures.

The values that follow come from patent publication EP0702015B1, “Bicyclic oxazole and thiazole substituted ethers” (Novartis AG, priority 1994, dated 1996).

As usually defined, the EC50 is the concentration at which the effect is half-maximal. In the case of `O=C1CC[C@]2(c3ccc(Cl)c(Cl)c3)O[C@H](COc3ccc(Cl)cc3)CN12` (racemic) [Example 3, (±)-trans-2-[(4-Chlorophenoxy)methyl]-7a-(3,4-dichlorophenyl)-2,3,7,7a-tetrahydropyrrolo[2,1-b]oxazol-5(6H)-one], the EC50 in assay [1] was around 14 µM. Further, the “EC50 in the ob/ob hypoglycemia test” value in assay [2] was “about 62 mg/kg”.

Regarding `O=C1CC[C@]2(c3ccc(Cl)c(Cl)c3)O[C@H](COc3ccc(Cl)cc3)CN12` [Example 1, (-)-trans-2S-[(4-Chlorophenoxy)methyl]-7A-(3,4-dichlorophenyl)-2,3,7,7a-tetrahydropyrrolo[2.1-b]oxazol-5(6H)-one], the EC50 in assay [1] was around 10 µM.
